Experiments:
[1] = target: T1, TNFα (Homo sapiens, UniProt P01375); experiment: Mass spectrometric analysis of compound binding to TNFα (soft ionisation)
Method: Mass spectrometry was typically performed using a Waters LCT-premier Time-of-Flight mass spectrometer or a Waters SynaptG2 Q-TOF mass spectrometer. Samples were introduced using an Advion Triversa Nanomate nanoflow infusion device which replaces the conventional spectrometer source, sample injection was via an “A” series chip with […] nozzle size at a nominal flow rate of 100 nl/min. Further modifications to the Waters LCT-premier Time-of-Flight mass spectrometer include a customised source cooling device allowing precise control of the source temperature and a commercial pressure regulation device giving precise control over the vacuum conditions in the source region. Together these modifications help retain the TNFα trimer in a native, folded conformation and facilitate the detection of complexes formed with test compounds of weak affinities.
Ions were generated using standard positive ion electrospray conditions resulting in multiple charging of TNFα.
Mass spectrometry is very sensitive to the buffer salts present in the protein sample. Typical buffer salts such as potassium or sodium phosphates have a severely detrimental affect on ionisation. Accordingly protein samples were pre-treated to remove these salts using a Zeba desalt spin column, the protein being exchanged into a mass spectrometry compatible buffer system, typically 50 mM Ammonium Acetate at pH 6.8.
Typically the test compounds were presented as 10 mM DMSO stock solutions such that when they are incubated with TNFα in solution the final DMSO concentration is 5%. […] This is evidenced by the changes in the number of charges acquired by the protein under the various conditions described.
Test compounds were prepared as 10 mM solutions in dimethylsulphoxide (DMSO). Therefore, it was necessary to establish the effect of DMSO on the native TNFα trimer in the absence of a test compound. […]
Incubation of a library of test compounds, including the compound of formula (3) with TNFα was monitored by mass spectrometry under soft ionization conditions. […]
Target sequence in this assay (P01375 77-233 limits assumed): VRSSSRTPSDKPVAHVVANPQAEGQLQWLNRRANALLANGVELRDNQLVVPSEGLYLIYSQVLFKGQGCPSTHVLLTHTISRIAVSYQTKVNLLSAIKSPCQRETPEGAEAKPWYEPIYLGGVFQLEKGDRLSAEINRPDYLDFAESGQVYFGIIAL

[2] = target: T1, TNFα; experiment: LC-MS of size exclusion fractions of TNFα, TNF-R and compound; type: binding; design: purchased R&D Systems; settings: either order of addition
Method: Fractions from size exclusion chromatographic separation of mixtures of TNFα, TNF-R and the compound of formula (3) were analysed by liquid chromatography-mass spectrometry (LC-MS). Two samples were prepared for size exclusion chromatography.
Target sequence in this assay (P01375 77-233 limits assumed): as above
Target sequence in this assay (P19438 30-211 partner limits assumed): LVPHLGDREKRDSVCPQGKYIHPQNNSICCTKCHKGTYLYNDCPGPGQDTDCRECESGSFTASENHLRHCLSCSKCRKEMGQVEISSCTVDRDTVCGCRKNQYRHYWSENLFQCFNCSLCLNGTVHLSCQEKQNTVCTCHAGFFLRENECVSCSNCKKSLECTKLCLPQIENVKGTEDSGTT

[3] = test system: TNFR2; experiment: Membrane TNF - TNFR2 signalling (NS0-mTNF cells with expanded primary human T cells); type: cell-based; settings: compound bound to membrane TNFα on NS0 cells
Method: A murine B cell line (NS0-mTNF) stably expressing non-cleavable human membrane TNF due to a mutation at the TACE cleavage site was used to trigger TNFR2 signalling in PHA-L and IL-2 expanded primary human T cells. […] TNFR1 was also present on these cells but was blocked using a UCB mouse anti-human-TNFR1 antibody 5R16.
NS0-mTNF cells were cultured with 10 μM NCEs for 1 hour to allow binding of Compounds to membrane TNF. T cells were then mixed with the NS0-mTNF cells and following a brief spin to allow cell-cell contact, cells were incubated for 5 min and then lysed in lysis buffer. […] First TRAF-2 recruitment to the TNFR2 receptor was measured in Co-immunoprecipitation experiments as a measure of membrane proximal signalling. After lysis of cells TNFR2 was isolated from the lysate using polyclonal goat anti-human TNFR2 antibodies followed by protein G sepharose bead purification. TNFR2 associated TRAF-2 was then measured in immunoblots after running the purified TNFR2 preparation on a SDS-PAGE. In addition, the whole cell lysate was also sampled for the presence of pNFκB using SDS-PAGE and pNFκB specific immunoblots.
• PBMC from 3 three different donors were cultured in 6 well plates with 10×10^6 cells per well in 5 ml of RPMI1640 supplemented with 10% FCS, 1% human serum, HEPES GlutaMAX, 25 U/ml hIL-2 (Roche) and 2 μg/ml PHA-L (Sigma) to grow out T cells • after 3 days cells were resuspended and cultured in 75 cm^2 flasks with the same media as above, but lacking the PHA-L • growth of culture was monitored and media was changed every 3 days.
This is a 2× solution • prepare 500 μl of 10×10^6 NS0-wt cells • After 1 h add 500 μl human T cells (50×10^6 cells/test) in human media at 37° C. T cells were preincubated for 15 min @37° C. with 50 μg/ml 5R16 anti-TNFR1 Fab-PEG to block signalling via TNFR1 prior adding to the NS0 cells. […]

Row | SMILES | effect on trimeric TNFα (charge state envelope) ([1]; 5% v/v DMSO) | binding to the monomeric form of TNFα ([1]; soft ionization) | stoichiometry of binding ([1]; soft ionization) | binding to TNFα in the presence of TNF-R [2] | TNFR2 specific membrane proximal (TRAF-2 recruitment to TNFR2) and downstream (pNFκB) signalling [3]
1 | Cc1ccc(C)c(Cn2c(C(O)c3ccncc3)nc3ccccc32)c1 (centres unmarked) [Compound 3] | stabilization of the trimeric TNFα complex | not observed to bind | one molecule of the compound of formula (3) per TNFα trimer | binds to TNFα even in the presence of TNF-R | 
2 | Cc1ccc(C)c(Cn2c(C(O)c3ccncc3)nc3ccc(-c4cnn(C)c4)cc32)c1 (centres unmarked) [Compound 15] |  |  |  |  | does not impair

— US11674967B2, “Method of identifying potential inhibitors of APO TNFα trimers” (UCB BIOPHARMA SRL, priority 2015, dated 2023)
